Results as given in patent US10787490B2, “Peptide inhibitors of interleukin-23 receptor and their use to treat inflammatory diseases” (Protagonist Therapeutics, Inc., priority 2015, dated 2020).
Like-named read-outs stand apart in the source and are kept apart here. Where a SMILES comes first, the peptide text is derived from it. Bridges are numbered along the chain shown (N, C = ends). [ ]: non-standard residue; d: D form. 2Nal = N[C@@H](Cc1ccc2ccccc2c1)C(=O)O; AEF = NCCOc1ccc(C[C@H](N)C(=O)O)cc1; Pen = CC(C)(S)[C@H](N)C(=O)O; Thp = NC1(C(=O)O)CCOCC1

Assays:
[1] = test system: TNBS-induced acute colitis, Sprague-Dawley rats; assay: TNBS induced colitis in rat; type: in vivo
[2] = test system: distal colon tissue of TNBS-exposed rats; assay: Biomarkers in distal colon of TNBS rats (ELISA); type: in vivo, rat; conditions: vs vehicle treated controls
Description: Levels of inflammatory markers were examined in the colons. The distal colon tissue samples, designated for protein expression analysis, were flash frozen after collection. For protein extraction, the samples were thawed, weighed and homogenized in the extraction buffer (PBS pH 7.2 supplemented with Protease Inhibitors, 3× volume:weight). The homogenates were centrifuged at 13 krpm at 4° C. for 15 minutes, a total of two times to remove the debris. The supernatants were saved in multiple aliquots in −80° C. and subsequently used for protein expression analysis on ELISA. The total protein in each sample was quantified using BCA assay.

rat splenocytes = assay: Rat Splenocyte Assay (IL-17A); type: cell-based; conditions: IL-17A produced by activated splenocytes exposed to IL-23; read-out: Cell assay (nM) Rat (Spleen), IC50
Description: A new assay developed was the rat splenocyte assay.
Briefly, splenocytes freshly isolated from rat were seeded in 96-well tissue culture plates in complete medium containing IL-10. […] Changes in IL-17A levels in the supernatants were detected using an ELISA.

Cyno IL-23R = type: binding
IL-23R in human DB cells = assay: Schild analysis, Human DB Cell (pSTAT3); type: cell-based; conditions: 0.3-100 nM peptide
[3] = test system: DSS-induced colitis, Sprague Dawley rats; assay: Rat Colitis Model: 9 Days of 3% DSS-Containing Drinking Water; type: in vivo; conditions: 100 mg/kg PO, QD
[4] = DTT stability assay (redox stability); type: in vitro ADME; conditions: half-life, 0.5 mM DTT, room temperature, numeric
[5] = target: human IL-23R (IL23R_huFC) (Homo sapiens, UniProt Q5VWK5); conditions: read-out: ELISA IL23R/IL23 in nMoles (IC50); non-cyclic peptides
[6] = Stability in simulated intestinal fluid (SIF); type: in vitro ADME; design: dose or concentration left out as unconfirmed; conditions: simulated intestinal fluid (SIF) with pancreatin, pH 6.8; read-out: Stability (t1/2, hr) SIF (converted)
[7] = Stability in simulated gastric fluid (SGF); type: in vitro ADME; conditions: pig, simulated gastric fluid (SGF) with porcine pepsin, pH 2
[8] = read-out: Cross Reactivity (nM) ELISA cyno IL23R IL23

Sequence of human IL-23R (IL23R_huFC) (Q5VWK5 24-354 limits assumed, looked up): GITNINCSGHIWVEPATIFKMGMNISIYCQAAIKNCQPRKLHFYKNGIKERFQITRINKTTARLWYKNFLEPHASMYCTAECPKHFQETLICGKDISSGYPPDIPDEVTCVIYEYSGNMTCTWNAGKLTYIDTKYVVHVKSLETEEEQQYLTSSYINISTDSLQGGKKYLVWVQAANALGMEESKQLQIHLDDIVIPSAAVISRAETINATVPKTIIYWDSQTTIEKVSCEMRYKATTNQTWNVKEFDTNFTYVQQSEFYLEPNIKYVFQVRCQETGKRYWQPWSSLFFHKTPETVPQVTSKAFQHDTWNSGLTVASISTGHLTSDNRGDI

Compound: Ac-[Pen]-NTWQ-[Pen]-[Phe[4-(2-aminoethoxy)]-[2-Nal]-[4-amino-4-carboxy-tetrahydropyran]-[Lys(Ac)]—NN—NH2 [SEQ ID NO: 1185]
- histopathology scores ([1]; Example 12): did not significantly reduce
- colon macroscopic score ([1]; Example 12, vs vehicle): significantly reduced
- weight loss ([1]; Example 12, Peptide 1185 37 mg/kg/day PO, anti-IL-23p19 4 mg/kg ip, prednisolone 10 mg/day P.O., vs vehicle): did not significantly prevent
- IL-17A level in colon [2]: did not significantly reduce
- IL-22 level in colon [2]: did not significantly reduce
- MPO level in colon [2]: did not significantly reduce
- IC50 (rat splenocytes): 35 nM
- IC50 (Cyno IL-23R; IL-23/IL-23R competitive binding, cyno, read-out: ELISA (nM) Cyno, IC50): 3 nM

Compound: CC(=O)NCCCC[C@H](NC(=O)C1(NC(=O)[C@H](Cc2ccc3ccccc3c2)NC(=O)[C@H](Cc2ccc(OCCN)cc2)NC(=O)[C@H]2NC(=O)[C@H](CCC(N)=O)NC(=O)[C@H](Cc3c[nH]c4ccccc34)NC(=O)[C@H]([C@@H](C)O)NC(=O)[C@H](CC(N)=O)NC(=O)[C@@H](NC(C)=O)C(C)(C)SSC2(C)C)CCOCC1)C(=O)N[C@@H](CC(N)=O)C(=O)N[C@@H](CC(N)=O)C(=O)N[C@@H](CC(N)=O)C(N)=O [SEQ ID NO: 1211, Ac-[Pen]-NTWQ-[Pen]-[Phe[4-(2-aminoethoxy)]-[2-Nal]-[4-amino-4-carboxy-tetrahydropyran]-[Lys(Ac)]-NNN-NH2] (Ac-[Pen]NTWQ[Pen][AEF][2Nal][Thp]K(Ac)NNN-NH2; disulfide 1-6)
- Schild slope (IL-23R in human DB cells): 0.76

Compound: O=C(O)c1cc(/N=N/c2ccc(S(=O)(=O)Nc3ccccn3)cc2)ccc1O [sulfasalazine]
- terminal ratio of colon weight:colon length ([3]; difference vs DSS alone): significant
- disease score (DAI) ([3]; from Day 5, vs DSS alone): attenuated

Compound: CC(=O)NC1CCSCC(C(=O)NC(Cc2ccc(OCCN)cc2)C(=O)NC(Cc2ccc3ccccc3c2)C(=O)NC2(C(=O)NC(CCC(=O)O)C(=O)NC(CC(N)=O)C(=O)NC(CC(N)=O)C(N)=O)CCOCC2)NC(=O)C(CCC(N)=O)NC(=O)C(Cc2c[nH]c3ccccc23)NC(=O)C(C(C)O)NC(=O)C(CCC(N)=O)NC1=O (stereo not shown) [SEQ ID NO: 1290, Ac-cyclo[[Abu]-QTWQC]-[Phe[4-(2-aminoethoxy)]-[2-Nal]-[4-amino-4-carboxy-tetrahydropyran]-ENN-NH2]
- DTT Stability [4]: >120 min
- IC50 [5]: > 100 µM

Compound: Hy-CADWVCYWHTFG-NH2 [SEQ ID NO: 169]
- IC50 (Cyno IL-23R; [8]): 1000 to 10000 nM

Compound: CC(=O)N[C@@H]1CCSC[C@@H](C(=O)N[C@@H](Cc2ccc(OCCN)cc2)C(=O)N[C@@H](Cc2ccc3ccccc3c2)C(=O)NC2(C(=O)N[C@@H](CCC(=O)O)C(=O)N[C@@H](CC(N)=O)C(=O)N[C@@H](CC(N)=O)C(N)=O)CCOCC2)NC(=O)[C@H](CCC(N)=O)NC(=O)[C@H](Cc2c[nH]c3ccccc23)NC(=O)[C@H]([C@@H](C)O)NC(=O)[C@@H](CCC(N)=O)NC1=O [SEQ ID NO: 980]
- colon macroscopic score ([1]; Example 14, vs vehicle): significantly reduced
- sum of the histopathology score ([1]; Example 14, vs vehicle): significantly reduced
- weight loss ([1]; Example 14, 37 mg/kg/day oral): prevented
- half-life [6]: 11 h
- IL-22 level in colon [2]: reduced
- MPO level in colon [2]: reduced
- half-life at 20 μM [7]: 10 h

Compound: H-CSNWVCYWHTYG-NH2 (cysteine pairing not given here) [SEQ ID NO: 198]
- IC50 (Cyno IL-23R; [8]): < 250 nM
